Patent US8716180B2 (priority 2005, dated 2014)

System: deoxynivalenol (DON)
Set-up: species or system winter wheat
Details: in vivo

N#Cc1c[nH]cc1-c1cccc2c1OC(F)(F)O2 [Lot B, fludioxonil]
Amount of DON (deoxynivalenol) in the ear of wheat: 0 ppb
